Results on 19 compounds are retold here after patent publication US11420958B2, “Aryl and heteroaryl substituted indole compounds” (BRISTOL-MYERS SQUIBB COMPANY, priority 2017, dated 2022).

SMILES strings stand for the structures.

Common to all, as to type: cell-based
The target in one experiment is human TLR9 (Homo sapiens (Human), UniProt Q9NR96). Nature of the experiment: TLR9 inhibition reporter assay (HEK-Blue, SEAP). The conditions noted are these: HEK-Blue cells overexpressing human TLR9, ODN2006 5 nM stimulation. An outline of the steps: (§1)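 After 30 min room-temperature pre-incubation with compound (0.05 nM–50 μM), reporter HEK-Blue lines were activated by ODN2006 5 nM for TLR9, R848 15.9 μM for TLR8 or gardiquimod 7.5 μM for TLR7. SEAP detected after 22 h, 37 °C; inhibition scaled between agonist+DMSO wells and known-inhibitor control.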
For orientation: A reporter such as luciferase makes a cellular process visible.

In another experiment the target is human TLR8 (Homo sapiens (Human), UniProt Q9NR97). Nature of the experiment: TLR8 inhibition reporter assay (HEK-Blue, SEAP). The conditions noted are these: HEK-Blue cells overexpressing human TLR8, R848 15.9 μM stimulation. An outline of the steps: as §1
For the next experiment, the target named is human TLR7 (Homo sapiens (Human), UniProt Q9NYK1). Nature of the experiment: TLR7 inhibition reporter assay (HEK-Blue, SEAP). The conditions noted are these: HEK-Blue cells overexpressing human TLR7, gardiquimod 7.5 μM stimulation. An outline of the steps: as §1
human TLR7, sequence (Q9NYK1 27-1049): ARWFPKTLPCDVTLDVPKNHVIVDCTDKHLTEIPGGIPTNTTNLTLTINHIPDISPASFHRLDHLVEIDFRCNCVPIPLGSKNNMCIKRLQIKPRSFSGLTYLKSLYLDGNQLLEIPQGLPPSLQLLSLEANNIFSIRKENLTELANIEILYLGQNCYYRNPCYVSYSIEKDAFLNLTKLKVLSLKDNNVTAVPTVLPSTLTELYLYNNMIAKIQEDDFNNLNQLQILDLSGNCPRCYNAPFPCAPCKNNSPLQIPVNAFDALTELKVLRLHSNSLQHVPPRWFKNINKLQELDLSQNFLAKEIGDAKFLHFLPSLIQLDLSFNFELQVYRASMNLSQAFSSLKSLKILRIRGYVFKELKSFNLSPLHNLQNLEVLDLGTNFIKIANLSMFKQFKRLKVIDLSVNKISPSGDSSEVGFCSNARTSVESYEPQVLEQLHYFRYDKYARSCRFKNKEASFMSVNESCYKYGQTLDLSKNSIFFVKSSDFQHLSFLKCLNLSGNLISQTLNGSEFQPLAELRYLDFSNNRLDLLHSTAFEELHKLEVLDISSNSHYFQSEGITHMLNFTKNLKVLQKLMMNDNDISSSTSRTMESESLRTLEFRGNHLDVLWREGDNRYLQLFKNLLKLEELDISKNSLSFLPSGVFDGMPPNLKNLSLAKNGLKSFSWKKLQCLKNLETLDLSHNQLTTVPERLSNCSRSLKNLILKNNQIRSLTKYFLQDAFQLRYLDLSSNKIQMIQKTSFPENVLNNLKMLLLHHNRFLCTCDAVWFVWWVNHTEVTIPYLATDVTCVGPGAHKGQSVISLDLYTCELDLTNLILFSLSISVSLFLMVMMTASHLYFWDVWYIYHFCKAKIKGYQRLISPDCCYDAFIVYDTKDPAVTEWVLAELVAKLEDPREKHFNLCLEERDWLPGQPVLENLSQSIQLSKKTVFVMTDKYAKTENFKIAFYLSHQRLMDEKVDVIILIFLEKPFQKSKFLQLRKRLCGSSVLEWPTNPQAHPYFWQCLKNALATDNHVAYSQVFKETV

human TLR8, sequence (Q9NR97 27-1041): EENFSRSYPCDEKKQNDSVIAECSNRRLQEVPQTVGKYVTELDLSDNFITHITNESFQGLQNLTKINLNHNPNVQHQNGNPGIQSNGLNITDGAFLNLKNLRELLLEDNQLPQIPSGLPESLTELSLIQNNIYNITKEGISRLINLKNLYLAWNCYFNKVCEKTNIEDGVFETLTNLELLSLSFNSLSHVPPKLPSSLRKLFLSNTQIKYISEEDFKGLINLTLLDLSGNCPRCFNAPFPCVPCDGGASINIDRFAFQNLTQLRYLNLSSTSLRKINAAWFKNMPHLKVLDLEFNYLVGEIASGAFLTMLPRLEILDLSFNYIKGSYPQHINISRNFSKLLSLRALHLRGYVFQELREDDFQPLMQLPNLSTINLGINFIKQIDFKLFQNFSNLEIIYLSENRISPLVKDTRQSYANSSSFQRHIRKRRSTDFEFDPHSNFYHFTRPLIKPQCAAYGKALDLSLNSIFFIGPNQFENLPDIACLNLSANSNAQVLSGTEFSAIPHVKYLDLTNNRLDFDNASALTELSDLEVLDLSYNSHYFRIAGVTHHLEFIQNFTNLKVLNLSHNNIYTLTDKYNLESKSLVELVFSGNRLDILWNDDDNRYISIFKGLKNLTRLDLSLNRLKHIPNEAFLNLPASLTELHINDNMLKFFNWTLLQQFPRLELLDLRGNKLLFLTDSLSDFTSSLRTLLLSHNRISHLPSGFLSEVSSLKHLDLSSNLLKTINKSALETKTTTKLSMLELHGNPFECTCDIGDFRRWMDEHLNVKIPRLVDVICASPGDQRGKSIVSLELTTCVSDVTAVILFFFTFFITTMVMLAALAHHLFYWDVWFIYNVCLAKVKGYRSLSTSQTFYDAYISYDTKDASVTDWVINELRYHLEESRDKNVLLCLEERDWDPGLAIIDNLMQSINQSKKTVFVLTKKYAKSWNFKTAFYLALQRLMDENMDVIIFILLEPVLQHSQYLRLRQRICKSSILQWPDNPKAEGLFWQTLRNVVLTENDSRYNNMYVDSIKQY
human TLR9, sequence (Q9NR96 26-1032): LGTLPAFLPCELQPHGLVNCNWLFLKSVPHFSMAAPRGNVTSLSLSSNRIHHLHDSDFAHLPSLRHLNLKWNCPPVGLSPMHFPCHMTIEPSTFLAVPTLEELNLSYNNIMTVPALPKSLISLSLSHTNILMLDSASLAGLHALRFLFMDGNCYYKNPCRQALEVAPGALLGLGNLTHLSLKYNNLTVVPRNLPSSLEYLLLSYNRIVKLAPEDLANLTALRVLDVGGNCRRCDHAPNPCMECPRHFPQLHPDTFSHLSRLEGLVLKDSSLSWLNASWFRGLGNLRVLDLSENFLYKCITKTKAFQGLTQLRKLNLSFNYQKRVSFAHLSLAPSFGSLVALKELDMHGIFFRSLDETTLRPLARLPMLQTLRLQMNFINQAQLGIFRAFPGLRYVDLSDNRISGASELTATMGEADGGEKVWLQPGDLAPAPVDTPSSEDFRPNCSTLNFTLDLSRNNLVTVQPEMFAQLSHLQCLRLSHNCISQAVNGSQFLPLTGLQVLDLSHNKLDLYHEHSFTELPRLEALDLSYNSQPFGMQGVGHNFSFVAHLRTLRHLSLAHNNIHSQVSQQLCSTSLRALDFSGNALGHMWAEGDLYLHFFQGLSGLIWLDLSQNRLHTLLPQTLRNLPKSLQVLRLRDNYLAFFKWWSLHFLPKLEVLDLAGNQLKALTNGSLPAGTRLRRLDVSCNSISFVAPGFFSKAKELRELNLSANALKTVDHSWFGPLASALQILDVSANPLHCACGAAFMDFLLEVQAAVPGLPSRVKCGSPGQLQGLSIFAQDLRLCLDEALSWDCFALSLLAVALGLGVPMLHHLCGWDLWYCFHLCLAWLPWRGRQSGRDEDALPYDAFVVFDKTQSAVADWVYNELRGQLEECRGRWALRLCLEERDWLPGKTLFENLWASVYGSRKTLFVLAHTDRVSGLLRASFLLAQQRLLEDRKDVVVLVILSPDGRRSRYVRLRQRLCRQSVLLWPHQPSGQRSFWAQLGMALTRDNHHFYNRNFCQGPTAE

The term IC50 denotes the concentration that gives 50% inhibition. Turning to `CC(C)c1c(-c2ccnc3[nH]ncc23)[nH]c2ccc(-c3nnc(C(=O)NC4CCN(C(C)C)CC4)s3)cc12` [Example 203, 5-(3-isopropyl-2-(1H-pyrazolo[3,4-b]pyridin-4-yl)-1H-indol-5-yl)-N-(1-isopropylpiperidin-4-yl)-1,3,4-thiadiazole-2-carboxamide], the figures for the IC50 against human TLR9, on human TLR8 and against human TLR7 were 0.926 µM, 0.0078 µM and 0.056 µM, respectively.

Regarding `COc1ccc(-c2[nH]c3ccc(-c4nnc(C(=O)NCCNC(C)=O)o4)cc3c2C(C)C)cc1OC` [Example 100, N-(2-acetamidoethyl)-5-(2-(3,4-dimethoxyphenyl)-3-isopropyl-1H-indol-5-yl)-1,3,4-oxadiazole-2-carboxamide], the results for the IC50 against human TLR9, against human TLR8 and against human TLR7 were above 50 µM, 0.031 µM and 0.844 µM, respectively.

`Cc1cc(-c2[nH]c3ccc(-c4nc5c(s4)CN(C(=O)C4CC(=O)N(C)C4)CC5)cc3c2C(C)C)cc(C)n1` (stereo not drawn) [Example 364, 4-(2-(2-(2,6-dimethylpyridin-4-yl)-3-isopropyl-1H-indol-5-yl)-4,5,6,7-tetrahydrothiazolo[5,4-c]pyridine-5-carbonyl)-1-methylpyrrolidin-2-one]: the IC50 is above 50 µM against human TLR9, 0.011 µM on human TLR8 and 0.02 µM at human TLR7.

As for `COc1ccc(-c2[nH]c3ccc(-c4cnc(N5CCN(C)CC5)nc4)cc3c2C(C)C)cc1OC` [Example 432, 2-(3,4-dimethoxyphenyl)-3-isopropyl-5-(2-(4-methylpiperazin-1-yl)pyrimidin-5-yl)-1H-indole], the IC50 at human TLR9 amounted to 3.24 µM; on human TLR8 it was 0.017 µM; on human TLR7, 0.065 µM.

Consider `CC(C)c1c(-c2ccnc3[nH]ncc23)[nH]c2ccc(-c3cc4c(s3)CNCC4)cc12` [Example 229, 2-(3-isopropyl-2-(1H-pyrazolo[3,4-b]pyridin-4-yl)-1H-indol-5-yl)-4,5,6,7-tetrahydrothieno[2,3-c]pyridine], for which the IC50 on human TLR9 was 0.961 µM; at human TLR8 it was 0.0015 µM; against human TLR7, 0.032 µM.

For `Cc1cc(-c2[nH]c3ccc(-c4nnc(C5CCCNC5)[nH]4)cc3c2C(C)C)ccn1` (stereo not drawn) [Example 184, 3-isopropyl-2-(2-methylpyridin-4-yl)-5-(5-(piperidin-3-yl)-4H-1,2,4-triazol-3-yl)-1H-indole], the IC50 on human TLR9 is 7.48 µM; against human TLR8, 0.077 µM; at human TLR7, 0.071 µM.

As for `Cc1cc(-c2[nH]c3ccc(-c4nnc(C5CCCN(C(C)C)C5)o4)cc3c2CC(F)F)cc(C)n1` (stereo not drawn) [Example 328, 2-(3-(2,2-difluoroethyl)-2-(2,6-dimethylpyridin-4-yl)-1H-indol-5-yl)-5-(1-isopropylpiperidin-3-yl)-1,3,4-oxadiazole], the figures for the concentration for half-maximal inhibition (IC50) on human TLR9, on human TLR8 and against human TLR7 were 0.206 µM, 0.03 µM and 0.048 µM, respectively.

`Cc1cc(-c2[nH]c3ccc(-c4cnc(C5CCNCC5)[nH]4)cc3c2C(C)C)ccn1` [Example 254, 3-isopropyl-2-(2-methylpyridin-4-yl)-5-(2-(piperidin-4-yl)-1H-imidazol-5-yl)-1H-indole]: the IC50 at human TLR9 worked out at 1.21 µM; against human TLR8, 0.077 µM; at human TLR7, 0.088 µM.

In the case of `COc1ccc(-c2[nH]c3ccc(-c4cnc(N5CCN(C6CCCC6)CC5)nc4)cc3c2C(C)C)cc1OC` [Example 435, 5-(2-(4-cyclopentylpiperazin-1-yl)pyrimidin-5-yl)-2-(3,4-dimethoxyphenyl)-3-isopropyl-1H-indole], the figures for the IC50 at human TLR9, against human TLR8 and against human TLR7 were 3.65 µM, 0.241 µM and 1.55 µM, respectively.

Take `CC(C)c1c(-c2ccnc3[nH]ncc23)[nH]c2ccc(-c3nnc(C4CCCN(C)C4)o3)cc12` (stereo not drawn) [Example 162, 2-(3-isopropyl-2-(1H-pyrazolo[3,4-b]pyridin-4-yl)-1H-indol-5-yl)-5-(1-methylpiperidin-3-yl)-1,3,4-oxadiazole]: the IC50 at human TLR9 is 1.38 µM; against human TLR8, 0.0017 µM; on human TLR7, 0.052 µM.

As for `Cc1cc(-c2[nH]c3ccc(-c4nc(C(=O)NC5CCCNC5)co4)cc3c2C(C)C)cc(C)n1` (stereo not drawn) [Example 290, 2-(2-(2,6-dimethylpyridin-4-yl)-3-isopropyl-1H-indol-5-yl)-N-(piperidin-3-yl)oxazole-4-carboxamide], the IC50 against human TLR9 came to 3.39 µM; at human TLR8, 0.017 µM; against human TLR7, 0.038 µM.

Take `CC(C)c1c(-c2ccnc3[nH]ncc23)[nH]c2ccc(-c3nnc([C@H]4CCCNC4)o3)cc12` [Example 126, (S)-2-(3-isopropyl-2-(1H-pyrazolo[3,4-b]pyridin-4-yl)-1H-indol-5-yl)-5-(piperidin-3-yl)-1,3,4-oxadiazole]: the IC50 against human TLR9 is 0.389 µM; against human TLR8, 0.0034 µM; on human TLR7, 0.045 µM.

As for `COc1ccc(-c2[nH]c3ccc(-c4cccc(C(=O)N[C@H]5CC[C@H](C(C)(C)O)CC5)c4)cc3c2C(C)C)cc1OC` [Example 7, 3-(2-(3,4-dimethoxyphenyl)-3-isopropyl-1H-indol-5-yl)-N-((1r,4r)-4-(2-hydroxypropan-2-yl)cyclohexyl)benzamide], the IC50 against human TLR9 is above 50 µM; at human TLR8, 0.019 µM; at human TLR7, 1.79 µM.

Turning to `Cc1cc(-c2[nH]c3ccc(-c4ccnc(N5CCNCC5)c4)cc3c2C(C)C)cc(C)n1` [Example 320, 2-(2,6-dimethylpyridin-4-yl)-3-isopropyl-5-(2-(piperazin-1-yl)pyridin-4-yl)-1H-indole], the IC50 on human TLR9 stood at 2.97 µM; against human TLR8, 0.086 µM; at human TLR7 it was 0.071 µM.

Consider `COc1ccc(-c2[nH]c3ccc(-c4cccc(-c5ccc6nonc6c5)c4)cc3c2C(C)C)cc1OC` [Example 409, 5-(3-(2-(3,4-dimethoxyphenyl)-3-isopropyl-1H-indol-5-yl)phenyl)benzo[c][1,2,5]oxadiazole], for which the IC50 on human TLR9 is above 50 µM; at human TLR8, 0.429 µM; at human TLR7, 1.28 µM.

In the case of `Cc1cc(-c2[nH]c3ccc(-c4nnc(N)o4)cc3c2C(C)C)cc(C)n1` [Example 318, 5-(2-(2,6-dimethylpyridin-4-yl)-3-isopropyl-1H-indol-5-yl)-1,3,4-oxadiazol-2-amine], the IC50 came out at 6.36 µM against human TLR9, 0.034 µM against human TLR8 and 0.03 µM on human TLR7.

Regarding `CC(C)c1c(-c2ccnc3[nH]ncc23)[nH]c2ccc(-c3cccc4cnccc34)cc12` [Example 470, 5-(3-isopropyl-2-(1H-pyrazolo[3,4-b]pyridin-4-yl)-1H-indol-5-yl)isoquinoline], the IC50 is above 50 µM on human TLR9, 0.056 µM against human TLR8 and 2.59 µM against human TLR7.

Regarding `CC(C)c1c(-c2ccnc3[nH]ncc23)[nH]c2ccc(-c3nnc(C[C@@H]4CCCN4)o3)cc12` [Example 104, (S)-2-(3-isopropyl-2-(1H-pyrazolo[3,4-b]pyridin-4-yl)-1H-indol-5-yl)-5-(pyrrolidin-2-ylmethyl)-1,3,4-oxadiazole], the IC50 worked out at 0.15 µM against human TLR9, 0.0017 µM against human TLR8 and 0.031 µM on human TLR7.

On to `COc1ccc(-c2[nH]c3ccc(-c4ccc(N5CCN(C(C)=O)CC5)nc4)cc3c2C(C)C)cc1OC` [Example 390, 1-(4-(5-(2-(3,4-dimethoxyphenyl)-3-isopropyl-1H-indol-5-yl)pyridin-2-yl)piperazin-1-yl)ethan-1-one], for which the 50% inhibitory concentration (IC50) at human TLR9 was above 50 µM; on human TLR8, 0.044 µM; on human TLR7, 0.969 µM.
